Laboratory results: paper PMC7662385, “New Fluorene Derivatives from Dendrobium gibsonii and Their α-Glucosidase Inhibitory Activity” (Molecules, 2020)
Read-outs that look alike come from different tables or passages of the source.

Assays:
α-glucosidase [1] = assay: α-glucosidase enzyme kinetic study (Lineweaver–Burk and secondary plots); assay type: biochemical, Yeast; settings: for mode of α-glucosidase inhibition: Lineweaver–Burk plots
Experimental: Further investigation was conducted on compound 2 to study its kinetic properties with regard to the enzyme α-glucosidase using varying concentrations of the substrate.
(§1) The α-glucosidase inhibition assay was performed according to previous protocols. The assay was based on the release of p-nitrophenol from p-nitrophenol-α-D-glucopyranoside (substrate). The test samples were prepared by dissolving in 50% DMSO. […] The sample solution (10 μL) and 0.1 U/mL α-glucosidase (40 μL) in phosphate buffer (pH 6.8) were added to a 96-well plate. The mixture was preincubated at 37 °C for 10 min before adding 2 mM p-nitrophenol-α-D-glucopyranoside (50 μL). Then, the reaction was incubated again at 37 °C for 20 min. Finally, 1 M Na2CO3 solution (100 μL) was added to stop the reaction. The absorbance of the mixture was determined using a microplate reader at 405 nm.
An enzyme kinetic study was conducted based on the α-glucosidase assay as mentioned above. […] The inhibition mode was determined by double-reciprocal Lineweaver–Burk plot (1/V vs. 1/[S]). In order to estimate the Ki value, slopes of double-reciprocal lines were used to construct a secondary plot, and the Ki was calculated from the line equation of the plot.

α-glucosidase [2] = assay: α-glucosidase inhibition assay (p-nitrophenol release from p-nitrophenol-α-D-glucopyranoside); assay type: biochemical, Yeast; settings: two-fold serial dilution; acarbose positive control; read-out: α-glucosidase inhibitory activity IC50
Experimental: In this study, each compound was initially tested at 100 μg/mL.
as §1

Row | IC50 (α-glucosidase [2]) [µM] | Ki (α-glucosidase [1]; from secondary plot of slopes of double-reciprocal lines) [µM] | Vmax (α-glucosidase [1]; inhibitor dose 11 μM, PNPG 0.25 to 2 mM) | Km (α-glucosidase [1]; inhibitor dose 11 μM, PNPG 0.25 to 2 mM, read-out: Km) [µM] | Vmax (α-glucosidase [1]; inhibitor dose 22 μM, PNPG 0.25 to 2 mM) | Km (α-glucosidase [1]; inhibitor dose 22 μM, PNPG 0.25 to 2 mM, read-out: Km) [µM] | Km (α-glucosidase [1]; with changing inhibitor concentration, dose not given, read-out: Km as stated in text) [µM] | SMILES | mode of α-glucosidase inhibition (α-glucosidase [1]) | Vmax (α-glucosidase [1]; inhibitor dose 465 μM, PNPG 0.25 to 2 mM) | Km (α-glucosidase [1]; inhibitor dose 465 μM, PNPG 0.25 to 2 mM, read-out: Km) [µM] | Vmax (α-glucosidase [1]; inhibitor dose 930 μM, PNPG 0.25 to 2 mM) | Vmax as stated in text (α-glucosidase [1]; with changing inhibitor concentration, dose not given)
1 |  |  |  |  |  |  |  | C[C@H]1O[C@H](O[C@H]2[C@H](O)[C@@H](O)[C@@H](O[C@H]3[C@H](O)[C@@H](O)C(O)O[C@@H]3CO)O[C@@H]2CO)[C@H](O)[C@@H](O)[C@@H]1N[C@H]1C=C(CO)[C@@H](O)[C@H](O)[C@H]1O (some centres unmarked) [acarbose, reference compound] | competitive | 0.10 ∆OD/min | 6740 | 0.11 ∆OD/min | 0.11 ∆OD/min
2 | 19.8 ± 0.9 | 20.4 | 0.086 ∆OD/min | 1230 | 0.052 ∆OD/min | 1190 | 1550 | COc1cc2c3c(c1O)CCc1cc(OC)c(OC)c(c1-3)OC21c2cccc(O)c2-c2c1cc(OC)c(O)c2OC (centres unmarked) [Compound 2, dendrogibsol] | noncompetitive |  |  |  | 
3 | 185 ± 6.9 |  |  |  |  |  |  | COc1cc(O)c2c(c1)CCc1cc(O)ccc1-2 [Compound 7, lusianthridin] |  |  |  |  | 
